Each compound was assayed on B cell receptor-mediated activation of B cells in human blood (CD69 expression) (assay: Inhibition of B cell activation in whole blood measured by CD69 expression). Conditions: anti-IgM stimulation, 20 hours, CD69-positive cells that are also CD20-positive, read-out: HWB IC50.
Assay type: cell-based
Description: Inhibition of B Cell Activation in Whole Blood Measured by CD69 Expression
A procedure to test the ability of Btk inhibitors to suppress B cell receptor-mediated activation of B cells in human blood is as follows:
Human whole blood (HWB) is obtained from healthy volunteers, with the following restrictions: 24 hr drug-free, non-smokers. Blood is collected by venipuncture into Vacutainer tubes anticoagulated with sodium heparin. Test compounds are diluted to ten times the desired starting drug concentration in PBS […], followed by three-fold serial dilutions in 10% DMSO in PBS to produce a nine point dose-response curve. […] HWB (100 μl) is added to each well, and after mixing the plates are incubated at 37 C, 5% CO2, 100% humidity for 30 minutes.
Included are induced control, unstained and single stains for compensation adjustments and initial voltage settings. […] Supernatants are removed via suction and the remaining pellets are lysed again with another 1 ml of 1× Pharmingen Lyse Buffer, and plates are spun down as before. Supernatants are aspirated and remaining pellets are washed in FACs buffer (PBS+1% FBS). […] Samples are transferred to a 96 well plate suitable to be run on the HTS 96 well system on the BD LSR II flow cytometer.
Using appropriate excitation and emission wavelengths for the fluorophores used, data are acquired and percent positive cell values are obtained using Cell Quest Software. Results are initially analyzed by FACS analysis software (Flow Jo).

Row | IC50 | SMILES
1 | 0.015 µM | CN1CCn2nc(Nc3cc(-c4ccnc(-n5ccc6cc(C(C)(C)C)cc(F)c6c5=O)c4CO)nn(C)c3=O)cc2C1 [Compound I-23, 6-tert-Butyl-8-fluoro-2-{3-hydroxymethyl-4-[1-methyl-5-(5-methyl-4,5,6,7-tetrahydro-pyrazolo[1,5-a]pyrazin-2-ylamino)-6-oxo-1,6-dihydro-pyridazin-3-yl]-pyridin-2-yl}-2H-isoquinolin-1-one]
2 | 0.006 µM | Cn1nc(-c2ccnc(-n3ccc4cc(C(C)(C)C)cc(F)c4c3=O)c2CO)cc(Nc2cc3n(n2)CCN(C2COC2)C3)c1=O [Compound I-24, 6-tert-Butyl-8-fluoro-2-{3-hydroxymethyl-4-[1-methyl-5-(5-oxetan-3-yl-4,5,6,7-tetrahydro-pyrazolo[1,5-a]pyrazin-2-ylamino)-6-oxo-1,6-dihydro-pyridazin-3-yl]-pyridin-2-yl}-2H-isoquinolin-1-one]
3 | 0.003 µM | CCN1CCn2nc(Nc3cc(-c4ccnc(-n5ccc6cc(C(C)(C)C)cc(F)c6c5=O)c4CO)nn(C)c3=O)cc2C1 [Compound I-25, 6-tert-Butyl-2-{4-[5-(5-ethyl-4,5,6,7-tetrahydro-pyrazolo[1,5-a]pyrazin-2-ylamino)-1-methyl-6-oxo-1,6-dihydro-pyridazin-3-yl]-3-hydroxymethyl-pyridin-2-yl}-8-fluoro-2H-isoquinolin-1-one]
4 | 0.062 µM | Cn1nc(-c2ccnc(-n3ccc4cc(C(C)(C)C)cc(F)c4c3=O)c2CO)cc(Nc2ccc(OC(C)(C)CN3CC(F)(F)C3)cn2)c1=O [Compound I-27, 6-tert-Butyl-2-[4-(5-{5-[2-(3,3-difluoro-azetidin-1-yl)-1,1-dimethyl-ethoxy]-pyridin-2-ylamino}-1-methyl-6-oxo-1,6-dihydro-pyridazin-3-yl)-3-hydroxymethyl-pyridin-2-yl]-8-fluoro-2H-isoquinolin-1-one]
5 | 0.074 µM | Cn1cc(-c2nccc(-n3ncc4cc(C(C)(C)C)cc(F)c4c3=O)c2CO)cc(Nc2ccc(C(=O)N3CCOCC3)cn2)c1=O [Compound I-28, 4-(6-tert-Butyl-8-fluoro-1-oxo-1H-phthalazin-2-yl)-3-hydroxymethyl-1′-methyl-5′-[5-(morpholine-4-carbonyl)-pyridin-2-ylamino]-1′H-[2,3′]bipyridinyl-6′-one]
6 | 0.162 µM | Cn1cc(-c2nccc(-n3ncc4cc(C(C)(C)C)cc(F)c4c3=O)c2CO)cc(Nc2ccc(S(C)(=O)=O)cn2)c1=O [Compound I-29, 4-(6-tert-Butyl-8-fluoro-1-oxo-1H-phthalazin-2-yl)-3-hydroxymethyl-5′-(5-methanesulfonyl-pyridin-2-ylamino)-1′-methyl-1′H-[2,3′]bipyridinyl-6′-one]
7 | 0.055 µM | Cn1nc(-c2ccnc(-n3ncc4cc(C(C)(C)C)cc(F)c4c3=O)c2CO)cc(Nc2ccc(OC(C)(C)CN3CC(F)(F)C3)cn2)c1=O [Compound I-30, 6-tert-Butyl-2-[4-(5-{5-[2-(3,3-difluoro-azetidin-1-yl)-1,1-dimethyl-ethoxy]-pyridin-2-ylamino}-1-methyl-6-oxo-1,6-dihydro-pyridazin-3-yl)-3-hydroxymethyl-pyridin-2-yl]-8-fluoro-2H-phthalazin-1-one]
8 | 0.036 µM | CN1CCn2nc(Nc3cc(-c4ccnc(-n5ccc6cc(C(C)(C)C#N)cc(F)c6c5=O)c4CO)nn(C)c3=O)cc2C1 [Compound I-31, 2-(8-Fluoro-2-{3-hydroxymethyl-4-[1-methyl-5-(5-methyl-4,5,6,7-tetrahydro-pyrazolo[1,5-a]pyrazin-2-ylamino)-6-oxo-1,6-dihydro-pyridazin-3-yl]-pyridin-2-yl}-1-oxo-1,2-dihydro-isoquinolin-6-yl)-2-methyl-propionitrile]
9 | 0.106 µM | Cn1nc(-c2ccnc(-n3ccc4cc(C(C)(C)C#N)cc(F)c4c3=O)c2CO)cc(Nc2ccc(OC(C)(C)CN3CC(F)(F)C3)cn2)c1=O [Compound I-32, 2-{2-[4-(5-{5-[2-(3,3-Difluoro-azetidin-1-yl)-1,1-dimethyl-ethoxy]-pyridin-2-ylamino}-1-methyl-6-oxo-1,6-dihydro-pyridazin-3-yl)-3-hydroxymethyl-pyridin-2-yl]-8-fluoro-1-oxo-1,2-dihydro-isoquinolin-6-yl}-2-methyl-propionitrile]
10 | 0.212 µM | Cn1nc(-c2ccnc(-n3ncc4cc(C(C)(C)C)ccc4c3=O)c2CO)cc(Nc2ccc(OC(C)(C)CN3CC(F)(F)C3)cn2)c1=O [Compound I-33, 6-tert-Butyl-2-[4-(5-{5-[2-(3,3-difluoro-azetidin-1-yl)-1,1-dimethyl-ethoxy]-pyridin-2-ylamino}-1-methyl-6-oxo-1,6-dihydro-pyridazin-3-yl)-3-hydroxymethyl-pyridin-2-yl]-2H-phthalazin-1-one]
11 | 3.5 µM | Cn1nc(-c2ccnc(-n3ncc4cc(C(C)(C)C)cc(F)c4c3=O)c2CO)cc(Nc2cc3n(n2)CC[N+](C)([O-])C3)c1=O (centres unmarked) [Compound I-34, 6-tert-Butyl-8-fluoro-2-{3-hydroxymethyl-4-[1-methyl-5-(5-methyl-5-oxy-4,5,6,7-tetrahydro-pyrazolo[1,5-a]pyrazin-2-ylamino)-6-oxo-1,6-dihydro-pyridazin-3-yl]-pyridin-2-yl}-2H-phthalazin-1-one]
